Data from ChEMBL document CHEMBL4270496, “How to train your inhibitor: Design strategies to overcome resistance to Epidermal Growth Factor Receptor inhibitors” (Eur J Med Chem, 2017).
One block for each compound: values may come before it.

Columns and labels:
NCI-H1975 [1] = test: Antiproliferative activity against human NCI-H1975 cells expressing EGFR T790M/L858R mutant incubated for 72 hrs by MTS assay; type: functional, cell-based; conditions: NCI-H1975, 72 h
BT-474 = test: Antiproliferative activity against human BT474 cells expressing wild type HER2 incubated for 72 hrs by MTS assay; type: functional, cell-based; conditions: BT-474, 72 h
A549 = test: Antiproliferative activity against human A549 cells; type: functional, cell-based
A-431 [2] = test: Antiproliferative activity against human A431 cells expressing wild type EGFR incubated for 72 hrs by MTS assay; type: functional, cell-based; conditions: A-431, 72 h
MCF7 [3] = test: Antiproliferative activity against human MCF7 cells expressing wild type HER2 incubated for 72 hrs by MTS assay; type: functional, cell-based; conditions: MCF7, 72 h
[4] = molecular target: T1, Epidermal growth factor receptor (Homo sapiens, UniProt P00533); test: Inhibition of EGFR (unknown origin)
[5] = molecular target: Epidermal growth factor receptor (Homo sapiens, UniProt P00533, T790M/L858R); test: Inhibition of EGFR T790M/L858R mutant (unknown origin)
MCF7 [6] = test: Antiproliferative activity against human MCF7 cells expressing wild type HER2; type: functional, cell-based
NCI-H1975 [7] = test: Antiproliferative activity against human NCI-H1975 cells expressing EGFR T790M/L858R mutant; type: functional, cell-based
[8] = molecular target: T2, Receptor tyrosine-protein kinase erbB-2 (Homo sapiens, UniProt P04626); test: Inhibition of HER2 (unknown origin)
A-431 [9] = test: Antiproliferative activity against human A431 cells expressing wild type EGFR; type: functional, cell-based
NCI-N87 = test: Antiproliferative activity against human NCI-N87 cells expressing wild type EGFR and HER2 incubated for 72 hrs by MTS assay; type: functional, cell-based; conditions: NCI-N87, 72 h
[10] = molecular target: T2, Receptor tyrosine-protein kinase erbB-2; test: Inhibition of GST-tagged human HER2 catalytic domain expressed in insect cells
[11] = molecular target: Epidermal growth factor receptor (Homo sapiens, UniProt P00533, T790M); test: Inhibition of human EGFR T790M mutant expressed in mouse Ba/F3 cells; type: cell-based
[12] = molecular target: T1, Epidermal growth factor receptor; test: Inhibition of GST-tagged human EGFR catalytic domain expressed in insect cells
[13] = molecular target: Epidermal growth factor receptor (Homo sapiens, UniProt P00533, L858R); test: Inhibition of human EGFR L858R mutant expressed in mouse Ba/F3 cells; type: cell-based
[14] = molecular target: Epidermal growth factor receptor (Homo sapiens, UniProt P00533, L858R/T790M); test: Inhibition of human EGFR T790M/L858R mutant expressed in mouse Ba/F3 cells; type: cell-based
[15] = Antiproliferative activity against human NCI-H1819 cells expressing wild type HER2 incubated for 72 hrs by MTS assay; type: functional, cell-based; conditions: NCI-H1819, 72 h
[16] = Antiproliferative activity against human HS27 cells expressing wild type HER2 incubated for 72 hrs by MTS assay; type: cell-based
SK-BR-3 = test: Antiproliferative activity against human SKBR3 cells expressing wild type HER2 incubated for 72 hrs by MTS assay; type: functional, cell-based; conditions: SK-BR-3, 72 h

T2 sequence (P04626 whole entry): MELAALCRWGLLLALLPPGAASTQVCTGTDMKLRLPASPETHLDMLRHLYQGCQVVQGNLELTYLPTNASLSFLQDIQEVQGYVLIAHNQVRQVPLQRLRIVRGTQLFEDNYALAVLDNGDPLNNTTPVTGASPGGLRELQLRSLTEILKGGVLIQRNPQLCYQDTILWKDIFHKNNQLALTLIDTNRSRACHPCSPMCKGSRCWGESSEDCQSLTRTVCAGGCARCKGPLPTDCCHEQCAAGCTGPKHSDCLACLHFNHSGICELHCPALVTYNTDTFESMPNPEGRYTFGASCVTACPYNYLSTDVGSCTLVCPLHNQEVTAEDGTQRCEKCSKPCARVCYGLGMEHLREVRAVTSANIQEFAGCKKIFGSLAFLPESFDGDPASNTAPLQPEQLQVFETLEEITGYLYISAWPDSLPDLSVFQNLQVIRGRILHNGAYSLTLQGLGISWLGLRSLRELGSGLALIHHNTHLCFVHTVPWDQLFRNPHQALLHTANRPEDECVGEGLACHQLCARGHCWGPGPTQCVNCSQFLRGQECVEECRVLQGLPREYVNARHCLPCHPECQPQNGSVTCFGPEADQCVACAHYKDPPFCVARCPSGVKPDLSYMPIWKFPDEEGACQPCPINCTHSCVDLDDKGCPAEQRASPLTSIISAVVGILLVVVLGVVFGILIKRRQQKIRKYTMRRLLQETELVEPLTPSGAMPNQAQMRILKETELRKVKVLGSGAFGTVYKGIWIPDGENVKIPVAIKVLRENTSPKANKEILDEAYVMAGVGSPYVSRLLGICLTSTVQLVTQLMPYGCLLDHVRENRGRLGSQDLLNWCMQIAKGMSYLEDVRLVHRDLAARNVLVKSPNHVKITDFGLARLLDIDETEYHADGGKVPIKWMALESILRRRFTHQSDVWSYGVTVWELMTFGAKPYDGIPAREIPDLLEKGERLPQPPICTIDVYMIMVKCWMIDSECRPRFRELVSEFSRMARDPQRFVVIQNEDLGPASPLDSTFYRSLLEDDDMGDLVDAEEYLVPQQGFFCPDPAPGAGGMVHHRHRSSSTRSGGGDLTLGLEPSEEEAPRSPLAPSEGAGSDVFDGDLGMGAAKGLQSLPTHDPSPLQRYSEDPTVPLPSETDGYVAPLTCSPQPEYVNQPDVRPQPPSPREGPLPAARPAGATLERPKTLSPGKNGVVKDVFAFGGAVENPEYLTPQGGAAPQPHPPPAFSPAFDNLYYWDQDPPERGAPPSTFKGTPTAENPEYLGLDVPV
T1 sequence (P00533 whole entry): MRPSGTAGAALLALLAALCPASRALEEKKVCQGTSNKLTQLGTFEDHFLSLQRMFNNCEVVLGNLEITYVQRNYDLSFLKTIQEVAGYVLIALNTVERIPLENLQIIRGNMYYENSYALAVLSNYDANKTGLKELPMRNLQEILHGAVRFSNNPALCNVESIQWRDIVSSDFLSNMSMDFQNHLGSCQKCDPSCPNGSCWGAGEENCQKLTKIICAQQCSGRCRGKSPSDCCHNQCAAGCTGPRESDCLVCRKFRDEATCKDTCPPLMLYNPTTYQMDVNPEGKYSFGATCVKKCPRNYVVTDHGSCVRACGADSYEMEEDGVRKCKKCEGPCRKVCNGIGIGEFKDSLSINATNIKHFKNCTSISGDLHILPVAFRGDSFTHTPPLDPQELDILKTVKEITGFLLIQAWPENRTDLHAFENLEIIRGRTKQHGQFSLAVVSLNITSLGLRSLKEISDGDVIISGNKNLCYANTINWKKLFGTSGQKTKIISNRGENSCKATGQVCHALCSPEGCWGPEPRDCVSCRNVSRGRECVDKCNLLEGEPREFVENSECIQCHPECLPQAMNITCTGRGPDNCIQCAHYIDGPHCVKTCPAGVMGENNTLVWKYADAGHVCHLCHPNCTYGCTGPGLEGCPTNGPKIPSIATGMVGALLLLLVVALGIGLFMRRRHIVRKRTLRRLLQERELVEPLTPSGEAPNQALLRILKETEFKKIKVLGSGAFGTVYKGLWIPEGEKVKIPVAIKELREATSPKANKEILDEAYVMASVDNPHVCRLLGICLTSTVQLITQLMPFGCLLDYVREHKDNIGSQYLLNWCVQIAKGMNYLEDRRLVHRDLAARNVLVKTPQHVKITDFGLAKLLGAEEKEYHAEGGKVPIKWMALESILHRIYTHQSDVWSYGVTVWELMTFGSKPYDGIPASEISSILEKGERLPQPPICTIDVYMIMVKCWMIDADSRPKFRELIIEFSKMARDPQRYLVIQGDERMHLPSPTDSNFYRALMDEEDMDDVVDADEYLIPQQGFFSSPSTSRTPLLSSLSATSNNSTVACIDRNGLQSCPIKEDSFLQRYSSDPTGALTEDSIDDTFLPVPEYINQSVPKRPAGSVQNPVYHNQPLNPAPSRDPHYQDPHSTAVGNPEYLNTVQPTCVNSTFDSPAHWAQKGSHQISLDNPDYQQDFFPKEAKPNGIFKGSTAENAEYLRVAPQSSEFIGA
Epidermal growth factor receptor (Homo sapiens, UniProt P00533, L858R/T790M), sequence (P00533 25-1210 T790M/L858R limits assumed): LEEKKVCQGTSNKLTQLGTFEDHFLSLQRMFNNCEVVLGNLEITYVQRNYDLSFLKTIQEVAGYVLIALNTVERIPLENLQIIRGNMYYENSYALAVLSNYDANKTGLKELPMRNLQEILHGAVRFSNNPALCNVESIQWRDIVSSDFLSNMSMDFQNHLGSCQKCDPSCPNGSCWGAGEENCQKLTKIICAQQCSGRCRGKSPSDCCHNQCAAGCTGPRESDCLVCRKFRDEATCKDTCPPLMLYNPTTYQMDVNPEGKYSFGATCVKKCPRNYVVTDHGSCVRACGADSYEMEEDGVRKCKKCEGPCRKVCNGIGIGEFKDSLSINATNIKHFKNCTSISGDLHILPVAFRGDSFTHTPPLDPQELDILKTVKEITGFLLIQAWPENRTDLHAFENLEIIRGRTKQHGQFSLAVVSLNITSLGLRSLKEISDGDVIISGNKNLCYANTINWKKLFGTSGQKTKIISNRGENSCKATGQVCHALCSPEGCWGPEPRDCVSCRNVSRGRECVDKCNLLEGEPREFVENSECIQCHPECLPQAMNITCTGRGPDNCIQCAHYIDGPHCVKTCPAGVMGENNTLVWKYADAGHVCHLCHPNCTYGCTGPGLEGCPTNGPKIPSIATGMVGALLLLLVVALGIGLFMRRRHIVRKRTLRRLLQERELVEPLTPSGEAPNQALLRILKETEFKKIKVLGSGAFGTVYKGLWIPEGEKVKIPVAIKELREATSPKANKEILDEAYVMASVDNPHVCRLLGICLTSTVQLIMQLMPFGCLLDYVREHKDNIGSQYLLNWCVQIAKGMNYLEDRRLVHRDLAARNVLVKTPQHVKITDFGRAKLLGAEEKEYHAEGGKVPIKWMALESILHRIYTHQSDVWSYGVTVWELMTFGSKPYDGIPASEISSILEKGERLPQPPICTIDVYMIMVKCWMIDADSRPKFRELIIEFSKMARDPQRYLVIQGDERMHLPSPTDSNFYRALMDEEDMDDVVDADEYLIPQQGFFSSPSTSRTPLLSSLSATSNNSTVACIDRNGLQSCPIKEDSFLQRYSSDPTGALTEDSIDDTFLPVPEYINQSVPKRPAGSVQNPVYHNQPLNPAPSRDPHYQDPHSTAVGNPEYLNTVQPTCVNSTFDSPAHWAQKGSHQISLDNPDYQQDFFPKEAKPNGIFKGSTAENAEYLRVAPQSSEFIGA
Epidermal growth factor receptor (Homo sapiens, UniProt P00533, T790M/L858R), sequence (P00533 25-1210 T790M/L858R limits assumed): as above

IC50 (NCI-H1975 [1]): 0.092 µM | IC50 (BT-474): 0.054 µM
SMILES: CN(C)C/C=C/C(=O)Nc1cc2c(Nc3ccc(F)c(Cl)c3)ncnc2cc1O[C@@H]1CCOC1

IC50 (A549): 1.64 µM | IC50 (A-431 [2]): 0.67 µM | IC50 (MCF7 [3]): 0.49 µM
SMILES: O=C(Nc1ccc2ncnc(Nc3cccc(Br)c3)c2c1)c1ccc(C(F)(F)F)cc1O

SMILES: CC(C)(O)CC(=O)NCCc1ccc2ncnc(Nc3ccc(Oc4cccc(C(F)(F)F)c4)c(Cl)c3)c2c1
IC50 [4]: 0.0098 µM | IC50 [5]: 0.033 µM | IC50 (MCF7 [6]): 0.094 µM | IC50 (NCI-H1975 [7]): 0.127 µM | IC50 [8]: 0.019 µM | IC50 (A-431 [9]): 0.041 µM

IC50 (A-431 [2]): 0.062 µM | IC50 (NCI-H1975 [1]): 0.034 µM
SMILES: CCOc1cc2ncnc(Nc3ccc(OCc4cccc(F)c4)c(Cl)c3)c2cc1NC(=O)/C=C/[C@@H]1CCCN1
IC50 (NCI-N87): 0.047 µM

IC50 [10]: 0.019 µM | IC50 (A-431 [2]): 0.1 µM | IC50 [11]: 0.00079 µM | IC50 [12]: 0.0014 µM | IC50 [13]: 0.00051 µM | IC50 [14]: 0.0023 µM
SMILES: C=CC(=O)Nc1cc2c(Nc3ccc(F)c(Cl)c3)ncnc2cc1C#CC(C)(C)N1CCN(C)CC1 [AV-412 FREE BASE]

IC50 (NCI-H1975 [1]): 0.101 µM
SMILES: C=CC(=O)Nc1cc2c(Nc3ccc(F)c(Cl)c3)ncnc2cc1OCCCN1CCOCC1 [CANERTINIB]

IC50 (NCI-H1975 [1]): 0.44 µM
SMILES: COc1cc2ncnc(Nc3ccc(F)c(Cl)c3)c2cc1NC(=O)/C=C/CN1CCCCC1 [DACOMITINIB ANHYDROUS]
IC50 [15]: 0.029 µM

IC50 [10]: 0.0053 µM | IC50 (A-431 [2]): 0.0009 µM | IC50 (NCI-H1975 [1]): 0.0057 µM | IC50 (SK-BR-3): 0.001 µM
SMILES: C=CC(=O)N1CCC(Oc2cc3c(Nc4ccc(Cl)c(Cl)c4F)ncnc3cc2OC)CC1 [POZIOTINIB]
GI50 at 72 h [16]: 3.83 µM
